Experimental findings from patent publication USRE37781E1, “Substituted cyclic carbonyls and derivatives thereof useful as retroviral protease inhibitors” (DuPont Pharmaceuticals Company, priority 1991, dated 2002) are described below.

≈ marks a conversion by molar mass, not a printed value. Where two headings read alike, the source gives them in different places.

For orientation: IC90 means the concentration at which the effect reaches the 90% level.

The test system of one assay is HIV-1 (RF) in MT-2 cells. Kind of assay: microbe, parasite or virus in culture. The format is cell-based. The method in brief:
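HIV-1 laboratory strains (RF, MN, IIIB) grown in H9 cells in RPMI 1640 with 5% FCS; infections in MT-2 cells. Viral RNA quantified by hybridization with biotinylated gag/pol capture probes on streptavidin plates and alkaline phosphatase-conjugated reporter probes; BH10 gag-pol in vitro transcripts serve as RNA standards.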

Assay [1] concerns the target single-chain tethered dimer of HIV protease (Human immunodeficiency virus 1, UniProt P04585). Kind of assay: biochemical. Set-up: fused on or other part: A second copy of the same protease unit is joined to the first by a short peptide tether, giving one polypeptide. Format: biochemical.
Where [2] appears, read: Human immunodeficiency virus 1, MT2, 48 h, Table 2d, class symbols, read-out: IC90.
Where [3] appears, read: read-out: HPLC K1, Table 2d, class symbols.
The mark [4] stands for this setting: Table 2d, HIV protease inhibition, HPLC method, read-out: HPLC K1.

Turning to `O=C1N(CCCCC(O)CO)C(Cc2ccccc2)C(O)C(O)C(Cc2ccccc2)N1CCCCC(O)CO` (centres unmarked) [Example 13I], the IC90 in the assay on HIV-1 (RF) in MT-2 cells (setting [2]) was more than 100 µg/mL. Also, in assay [1] (setting [3]), the Ki was less than 10 nM.

Turning to `O=C1CCC(CN2C(=O)NC(Cc3ccccc3)C(O)C(O)C2Cc2ccccc2)CC1` (centres unmarked) [Example 15VA], the IC90 with HIV-1 (RF) in MT-2 cells (setting [2]) was more than 50 µg/mL. In addition, the Ki in assay [1] (setting [3]) lay in the range of 10 to 1000 nM.

As for `O=C1N(Cc2ccc(CO)cc2)C(Cc2ccccc2)C(O)C(O)C(Cc2ccccc2)N1Cc1ccc(CO)cc1` (centres unmarked) [Example 13M], the IC90 with HIV-1 (RF) in MT-2 cells (setting [2]) is less than 10 µg/mL. For the same molecule, the Ki in assay [1] (setting [3]) was less than 10 nM.

Turning to `Cc1cccc(CN2C(=O)N(Cc3cccc(O)c3)C(Cc3ccccc3)C(O)C(O)C2Cc2ccccc2)c1` (centres unmarked) [10J], the IC90 result with HIV-1 (RF) in MT-2 cells (Table 2d, class symbols) is given as “+++ (+++=<10 μg/mL)”. The Ki in assay [1] (Table 2d, class symbols, read-out: HPLC K1) was less than 10 nM.

`O=C(NCCCCCN1C(=O)N(CCCCCNC(=O)c2ccccc2)C(Cc2ccccc2)C(O)C(O)C1Cc1ccccc1)c1ccccc1` (centres unmarked) [15EX]: in the assay on HIV-1 (RF) in MT-2 cells (Table 2d, HIV RNA assay), the IC90 result was “++/+ (The ++/+ is used in the cases where an IC90 was determined to be >50 μg/mL)”. For the same molecule, in assay [1] (setting [4]), the Ki was in the range of 10 to 1000 nM.

Take `O=C1NC(Cc2ccccc2)C(O)C(O)C(Cc2ccccc2)N1Cc1cccc(O)c1` (centres unmarked) [10I]: the IC90 in the assay with HIV-1 (RF) in MT-2 cells (setting [2]) is less than 10 µg/mL. For the same molecule, the Ki in assay [1] (setting [3]) is less than 10 nM.

As to `N#Cc1cccc(CN2C(Cc3ccccc3)C(O)C(O)C(Cc3ccccc3)N(Cc3cccc(C#N)c3)S2(=O)=O)c1` (centres unmarked) [23Y], the IC90 entry in the assay on HIV-1 (RF) in MT-2 cells (Table 2m) is listed as “+++ (+++=<10 μg/mL)”. Further, the Ki in assay [1] (Table 2m, read-out: HPLC Ki) is 10 to 1000 nM.

In the case of `Nc1cccc(CN2C(=O)N(CC3CC3)C(Cc3ccccc3)C(O)C(O)C2Cc2ccccc2)c1` (centres unmarked) [15G], the IC90 in the assay on HIV-1 (RF) in MT-2 cells (setting [2]) was less than 10 µg/mL. In addition, the Ki in assay [1] (setting [3]) was less than 10 nM.

Take `CCCCN1C(Cc2ccccc2)C(O)C(O)C(Cc2ccccc2)N(CCCC)S1(=O)=O` (centres unmarked) [23G]: in the assay with HIV-1 (RF) in MT-2 cells (Table 2m), the IC90 result is listed as “+++ (+++=<10 μg/mL)”. In assay [1] (Table 2m, read-out: HPLC Ki), the Ki was less than 10 nM.

With `CCC(CN1C(=O)N(CC(CC)=NO)C(Cc2ccccc2)C(O)C(O)C1Cc1ccccc1)=NO` (centres unmarked) [Example 15VP], the IC90 in the assay with HIV-1 (RF) in MT-2 cells (setting [2]) is 10 to 100 µg/mL (≈ 20.1 to 201 µM). In assay [1] (setting [3]), the Ki lay within 10 to 1000 nM.

Regarding `NCC(=O)Nc1cccc(CN2C(=O)N(Cc3cccc(NC(=O)CN)c3)C(Cc3ccccc3)C(O)C(O)C2Cc2ccccc2)c1` (centres unmarked) [15R], in the assay with HIV-1 (RF) in MT-2 cells (setting [2]), the 90% effect concentration (IC90) is less than 10 µg/mL. Also, the Ki in assay [1] (setting [3]) was less than 10 nM.

As to `O=C1N(Cc2ccc(CO)o2)C(Cc2ccccc2)C(O)C(O)C(Cc2ccccc2)N1Cc1ccc(CO)o1` (centres unmarked) [Example 13X], the IC90 in the assay on HIV-1 (RF) in MT-2 cells (setting [2]) was more than 100 µg/mL. Besides, the Ki in assay [1] (setting [3]) lay within 10 to 1000 nM.

Turning to `O=P1(Oc2ccccc2)N(CC2CC2)[C@H](Cc2ccccc2)[C@H](O)[C@@H](O)[C@@H](Cc2ccccc2)N1CC1CC1` (some centres unmarked) [28C], the IC90 result with HIV-1 (RF) in MT-2 cells (Table 2r) is reported as “+++ (+++=<10 μg/mL)”. For the same molecule, the Ki in assay [1] (Table 2r, read-out: Ki HPLC) was in the range of 10 to 1000 nM.

For the molecule `Cl.O=C(OCc1ccc(CN2C(=O)N(Cc3ccc(COC(=O)c4ccc(CN5CCOCC5)cc4)cc3)[C@H](Cc3ccccc3)[C@H](O)[C@@H](O)[C@H]2Cc2ccccc2)cc1)c1ccc(CN2CCOCC2)cc1` [29T], the IC90 entry in the assay with HIV-1 (RF) in MT-2 cells (Table 2s) is “+++ (+++=<10 μg/mL)”. Further, the Ki in assay [1] (Table 2s, read-out: Ki (HPLC)) was more than 1000 nM.

With `O=C(COCc1ccccc1)c1cccc(CN2C(=O)N(Cc3cccc(C(=O)COCc4ccccc4)c3)C(Cc3ccccc3)C(O)C(O)C2Cc2ccccc2)c1` (centres unmarked) [Example 15BI], in the assay with HIV-1 (RF) in MT-2 cells (Human immunodeficiency virus 1, MT2, 48 h, Table 2d, HIV RNA assay, read-out: IC90), the IC90 was less than 10 µg/mL. For the same molecule, the Ki in assay [1] (read-out: HPLC K1, Table 2d, HIV protease inhibition, HPLC method) is less than 10 nM.

With `CNc1cccc(CN2C(=O)N(Cc3ccc(CO)cc3)C(Cc3ccccc3)C(O)C(O)C2Cc2ccccc2)c1` (centres unmarked) [15M], the IC90 in the assay on HIV-1 (RF) in MT-2 cells (setting [2]) is less than 10 µg/mL. For the same molecule, in assay [1] (setting [3]), the Ki is less than 10 nM.

Consider `COCCCCCN1C(=O)N(CCCCCO)C(Cc2ccccc2)C(O)C(O)C1Cc1ccccc1` (centres unmarked) [Example 15VW], for which the IC90 in the assay on HIV-1 (RF) in MT-2 cells (setting [2]) is less than 10 µg/mL. Besides, the Ki in assay [1] (setting [3]) is less than 10 nM.

For `O=S1(=O)N(Cc2cccc(O)c2)C(Cc2ccccc2)C(O)C(O)C(Cc2ccccc2)N1Cc1cccc(O)c1` (centres unmarked) [Example 23D], in the assay with HIV-1 (RF) in MT-2 cells (Table 2m), the IC90 result was “+++ (+++=<10 μg/mL)”. Besides, in assay [1] (Table 2m, read-out: HPLC Ki), the Ki was less than 10 nM.

In the case of `O=S1(=O)N(Cc2ccc(OCc3ccccc3)cc2)C(Cc2ccccc2)C(O)C(O)C(Cc2ccccc2)N1Cc1ccc(OCc2ccccc2)cc1` (centres unmarked) [23J], the concentration for an effect of 90% (IC90) result in the assay with HIV-1 (RF) in MT-2 cells (Table 2m) is given as “++ (++=10 to 100 μg/mL)”. Moreover, in assay [1] (Table 2m, read-out: HPLC Ki), the Ki was more than 1000 nM.

For `CNC(=O)NCCCCCN1C(=O)N(CCCCCNC(=O)NC)C(Cc2ccccc2)C(O)C(O)C1Cc1ccccc1` (centres unmarked) [15ES], the IC90 result in the assay with HIV-1 (RF) in MT-2 cells (Table 2d, HIV RNA assay) is recorded as “++/+ (The ++/+ is used in the cases where an IC90 was determined to be >50 μg/mL)”. Further, the Ki in assay [1] (setting [4]) lay within 10 to 1000 nM.

Regarding `Oc1cccc(CN2C(=S)N(Cc3cccc(O)c3)C(Cc3ccccc3)C(O)C(O)C2Cc2ccccc2)c1` (centres unmarked) [Example 27J], in the assay with HIV-1 (RF) in MT-2 cells (Table 2q), the IC90 entry is “+++ (+++=<10 μg/mL)”. In addition, the Ki in assay [1] (Table 2q, read-out: HPLC Ki) was less than 10 nM.

Take `O=C1N(Cc2cccnc2Cl)C(Cc2ccccc2)C(O)C(O)C(Cc2ccccc2)N1Cc1cccnc1Cl` (centres unmarked) [Example 14A]: in the assay with HIV-1 (RF) in MT-2 cells (setting [2]), the IC90 lay in the range of 10 to 100 µg/mL (≈ 17.3 to 173 µM). In assay [1] (setting [3]), the Ki fell in the range of 10 to 1000 nM.
